# Measurements from US8143212B2 (Vicuron Pharmaceuticals Inc., priority 2002, dated 2012).
# Where two headings read alike, the source gives them in different places.
# What was measured:
# [1] = in vivo
# Experimental: Safety was evaluated by the collection and analysis of data on adverse events (AEs), clinical laboratory tests, physical examinations, vital signs, and ECGs.
# Rat mass balance study = details: rats
# Experimental: Excreta and more than 40 different tissues were collected through 70 days post-administration, and the tissue distribution and pharmacokinetics of drug-derived radioactivity were determined.
# Following dose administration, urine and feces were collected at 24 hour intervals to 14, 36, and 70 days after the dose (3 rats/final collection time). Water and methanol cage washes were also collected. Carcasses were analyzed at the end of the collection period. All samples were analyzed for total radioactivity content by liquid scintillation counting (LSC).
# Staph. aureus = test: ED50 against Staph. aureus murine septicaemias (Table 2); type: in vivo; details: Staphylococcus aureus, MSSA, sc, 10 min
# [2] = Phase II SSTI trial: safety (adverse events); type: in vivo, human
# Experimental: Each patient who received at least one dose of study drug (ITT population) was evaluated for drug safety through monitoring of adverse events (AE), including abnormal clinical laboratory test results and vital signs. AE were rated by the investigator as to their severity (mild, moderate, severe, life-threatening), and by the relationship to the study drug (not related, unlikely related, possibly related, or probably related).
# in vivo = details: Swiss ICR, mouse, plasma, ip
# Experimental: Neutropenia in this and all other studies was produced by injections of cyclophosphamide, 150 mg/kg 4 days prior to study, 100 mg/kg 1 day prior to study and 100 mg/kg every 48 h after start of infection until end of study. Neutrophil counts remained less than 100/mm^3 for the duration of study. Doses of 2.5, 5, 10, 20; 40, and 80 mg/kg were studied. Drug was administered by intraperitoneal injection of 0.2 ml volume. Blood was removed from groups of three mice by retroorbital aspiration into heparinized capillary tubes at 0.5, 1, 2, 4, 6, 24, 48, 72, and 96 hours after dosing. […] AUC was calculated by the trapezoidal rule from mean concentrations.
# human α-glycoprotein = details: pH 7.4
# Experimental: Integrated heat effects, after correction for heats of dilution, were analyzed by non-linear regression using a simple single-site binding model with the standard Microcal ORIGIN software package. Raw data (μcal/sec) for each injection were integrated to give the total heat effect per addition, then divided by amount of injectant to give kcal/mole of injectant. The same integration was applied for control dilution effects, and this was subtracted from the actual titration data. This provided a differential of the binding curve in which the extent of binding is proportional to the total heat liberated (or absorbed). This was then analyzed by non-linear regression methods in terms of various standard binding models. The simplest model assumes simple non-competitive binding equilibrium, and gives three parameters:
# [3] = system: Gram-positive isolates, including MRSA; type: cell-based; details: baseline isolates, MITT
# S. pneumoniae = test: Murine thigh-infection model (time kill, dosing regimen, PK/PD, neutrophils; Tables 31-33); type: in vivo, mice; details: for 1 log kill mg/kg / 2 log kill mg/kg: total dose over 6 days
# Experimental: Each point represents the mean of 4 thighs. Five dose levels, ranging 16-fold were used.
# Five different doses (two-fold increases) were used. […] Each point represents the mean of 4 thighs.
# Each point represents the mean of four thighs.
# Each point represents the mean value from 4 thighs. The static dose, and the doses associated with a 1 and 2 log kill were calculated from the parameters estimated by non-linear regression using the Hill equation.
# clinical = details: human, in vivo
# From the text: The study enrolled otherwise healthy subjects with mild, moderate, or severe hepatic impairment (Child-Pugh scores 5 to 6, 7 to 9, and 10 to 15, respectively) and matched control subjects with normal hepatic function.
# in vitro = type: cell-based, S. aureus; details: mouse, serum
# From the text: This degree of binding was considered in subsequent pharmacodynamic analyses. The degree of binding in human serum would be estimated to be 96%.
# [4] = Mean ± SD of S. pneumoniae strains, q 24 h regimen
# [5] = Mean ± SD of S. pneumoniae strains, q 72 h regimen
structure (smiles),measurement,setting,value
CN[C@H]1C(=O)N[C@@H]2Cc3ccc(cc3)Oc3cc4cc(c3O[C@@H]3O[C@H](C(=O)O)[C@@H](O)[C@H](O)[C@H]3NC(=O)CCCCCCCCC(C)C)Oc3ccc(cc3Cl)[C@@H](O)[C@@H]3NC(=O)[C@H](NC(=O)[C@@H]4NC(=O)[C@@H](NC2=O)c2cc(cc(O)c2Cl)Oc2cc1ccc2O)c1ccc(O)c(c1)-c1c(O[C@H]2O[C@H](CO)[C@@H](O)[C@H](O)[C@@H]2O)cc(O)cc1[C@@H](C(=O)NCCCN(C)C)NC3=O [Dalbavancin],average difference of effect on QTc values,[1]; human,7 ms
same,patients with AEs that led to discontinuation of study drug,[1]; human,3%
same,SAE considered to be related to study drug,[1],no SAE
same,plasma t1/2,Rat mass balance study,approximately 1 week
same,ED50,Staph. aureus,0.05 mg/kg
same,≧1 AE possibly/probably related to treatment,[2]; Single-dose dalbavancin (N = 20),55%
same,≧1 AE possibly/probably related to treatment,[2]; Two-dose dalbavancin (N = 21),48%
same,AE leading to discontinuation of study medication,"[2]; human, in vivo",0%
same,clinically significant hepatotoxicity or nephrotoxicity,[2]; in vivo,no evidence
same,premature discontinuation of treatment due to an AE,[2]; in vivo,No dalbavancin-treated patient discontinued treatment prematurely
same,serious adverse events related to study drug treatment,[2]; in vivo,no serious adverse events
same,half-life,in vivo,7.6 to 13.1 h
same,Calculated percent Binding,human α-glycoprotein; 1 μM,73.0%
same,Calculated percent Binding,human α-glycoprotein; 10 μM,68.2%
same,Calculated percent Binding,human α-glycoprotein; 100 μM,26.2%
same,Calculated percent Binding,human α-glycoprotein; 165 μM,16.9%
same,Calculated percent Binding,human α-glycoprotein; 250 μM,11.4%
same,Calculated percent Binding,human α-glycoprotein; 500 μM,5.9%
same,Dalbavancin MIC,"[3]; All S. aureus, Single dose Dalbavancin (1100 mg) group",(0.12)
same,Dalbavancin MIC,"[3]; All S. aureus, Standard of Care Regimens group",(0.016-0.25)
same,Dalbavancin MIC,"[3]; All S. aureus, Two-dose Dalbavancin (1000/500 mg) group",(0.12)
same,Dalbavancin MIC,"[3]; Group B streptococcus, Standard of Care Regimens group",(0.016)
same,Dalbavancin MIC,"[3]; Group B streptococcus, Two-dose Dalbavancin (1000/500 mg) group",(0.016)
same,Dalbavancin MIC,"[3]; Miscellaneous Streptococcus and nontypeable strains, Single dose Dalbavancin (1100 mg) group",(0.016)
same,Dalbavancin MIC,"[3]; Miscellaneous Streptococcus and nontypeable strains, Standard of Care Regimens group",(0.016)
same,Dalbavancin MIC,"[3]; Miscellaneous Streptococcus and nontypeable strains, Two-dose Dalbavancin (1000/500 mg) group",(0.016)
same,Dalbavancin MIC,"[3]; Streptococcus pyogenes, Standard of Care Regimens group",(0.016)
same,1 Log Kill f24AUC/MIC,S. pneumoniae; [4],21 ± 7.4
same,1 Log Kill mg/kg/24 h,S. pneumoniae; [4],1.1 ± 0.47 mg/kg/24 h
same,2 Log Kill f24AUC/MIC,S. pneumoniae; [4],24.3 ± 8.2
same,2 Log Kill mg/kg/24 h,S. pneumoniae; [4],1.23 ± 0.52 mg/kg/24 h
same,Static Effect f24AUC/MIC,S. pneumoniae; [4],17.6 ± 6.9
same,Static Effect mg/kg/24 h,S. pneumoniae; [4],0.91 ± 0.44 mg/kg/24 h
same,1 Log Kill f24AUC/MIC,S. pneumoniae; [5],9.0 ± 5.8
same,1 Log Kill mg/kg/24 h,S. pneumoniae; [5],0.93 ± 0.24 mg/kg/24 h
same,2 Log Kill f24AUC/MIC,S. pneumoniae; [5],16.6 ± 12.3
same,2 Log Kill mg/kg/24 h,S. pneumoniae; [5],1.13 ± 0.36 mg/kg/24 h
same,Static Effect f24AUC/MIC,S. pneumoniae; [5],7.2 ± 4.5
same,Static Effect mg/kg/72 h,S. pneumoniae; [5],0.77 ± 0.18 mg/kg/72 h
same,1 Log Kill f24AUC/MIC,"S. pneumoniae; SP1199, q 24 h regimen",19.4
same,1 Log Kill mg/kg/24 h,"S. pneumoniae; SP1199, q 24 h regimen",0.49 mg/kg/24 h
same,2 Log Kill f24AUC/MIC,"S. pneumoniae; SP1199, q 24 h regimen",22.7
same,2 Log Kill mg/kg/24 h,"S. pneumoniae; SP1199, q 24 h regimen",0.57 mg/kg/24 h
same,Static Effect f24AUC/MIC,"S. pneumoniae; SP1199, q 24 h regimen",16.0
same,Static Effect mg/kg/24 h,"S. pneumoniae; SP1199, q 24 h regimen",0.40 mg/kg/24 h
same,1 Log Kill f24AUC/MIC,"S. pneumoniae; SP1199, q 72 h regimen",12.1
same,1 Log Kill mg/kg/24 h,"S. pneumoniae; SP1199, q 72 h regimen",0.85 mg/kg/24 h
same,2 Log Kill f24AUC/MIC,"S. pneumoniae; SP1199, q 72 h regimen",35.3
same,2 Log Kill mg/kg/24 h,"S. pneumoniae; SP1199, q 72 h regimen",0.99 mg/kg/24 h
same,Static Effect f24AUC/MIC,"S. pneumoniae; SP1199, q 72 h regimen",10.3
same,Static Effect mg/kg/72 h,"S. pneumoniae; SP1199, q 72 h regimen",0.72 mg/kg/72 h
same,1 Log Kill f24AUC/MIC,"S. pneumoniae; SP1293, q 24 h regimen",21.7
same,1 Log Kill mg/kg/24 h,"S. pneumoniae; SP1293, q 24 h regimen",0.55 mg/kg/24 h
same,2 Log Kill f24AUC/MIC,"S. pneumoniae; SP1293, q 24 h regimen",25.9
same,2 Log Kill mg/kg/24 h,"S. pneumoniae; SP1293, q 24 h regimen",0.65 mg/kg/24 h
same,Static Effect f24AUC/MIC,"S. pneumoniae; SP1293, q 24 h regimen",17.4
same,Static Effect mg/kg/24 h,"S. pneumoniae; SP1293, q 24 h regimen",0.44 mg/kg/24 h
same,1 Log Kill f24AUC/MIC,"S. pneumoniae; SP1293, q 72 h regimen",18
same,1 Log Kill mg/kg/24 h,"S. pneumoniae; SP1293, q 72 h regimen",1.28 mg/kg/24 h
same,2 Log Kill f24AUC/MIC,"S. pneumoniae; SP1293, q 72 h regimen",23.8
same,2 Log Kill mg/kg/24 h,"S. pneumoniae; SP1293, q 72 h regimen",1.68 mg/kg/24 h
same,Static Effect f24AUC/MIC,"S. pneumoniae; SP1293, q 72 h regimen",14.1
same,Static Effect mg/kg/72 h,"S. pneumoniae; SP1293, q 72 h regimen",1.01 mg/kg/72 h
same,1 Log Kill f24AUC/MIC,"S. pneumoniae; SP1325, q 24 h regimen",31.8
same,1 Log Kill mg/kg/24 h,"S. pneumoniae; SP1325, q 24 h regimen",1.6 mg/kg/24 h
same,2 Log Kill f24AUC/MIC,"S. pneumoniae; SP1325, q 24 h regimen",34.5
same,2 Log Kill mg/kg/24 h,"S. pneumoniae; SP1325, q 24 h regimen",1.73 mg/kg/24 h
same,Static Effect f24AUC/MIC,"S. pneumoniae; SP1325, q 24 h regimen",29.0
same,Static Effect mg/kg/24 h,"S. pneumoniae; SP1325, q 24 h regimen",1.46 mg/kg/24 h
same,1 Log Kill f24AUC/MIC,"S. pneumoniae; SP1325, q 72 h regimen",8.8
same,1 Log Kill mg/kg/24 h,"S. pneumoniae; SP1325, q 72 h regimen",0.99 mg/kg/24 h
same,2 Log Kill f24AUC/MIC,"S. pneumoniae; SP1325, q 72 h regimen",17.6
same,2 Log Kill mg/kg/24 h,"S. pneumoniae; SP1325, q 72 h regimen",1.16 mg/kg/24 h
same,Static Effect f24AUC/MIC,"S. pneumoniae; SP1325, q 72 h regimen",6.0
same,Static Effect mg/kg/72 h,"S. pneumoniae; SP1325, q 72 h regimen",0.83 mg/kg/72 h
same,1 Log Kill f24AUC/MIC,"S. pneumoniae; SP1329, q 24 h regimen",23.5
same,1 Log Kill mg/kg/24 h,"S. pneumoniae; SP1329, q 24 h regimen",1.18 mg/kg/24 h
same,2 Log Kill f24AUC/MIC,"S. pneumoniae; SP1329, q 24 h regimen",26.7
same,2 Log Kill mg/kg/24 h,"S. pneumoniae; SP1329, q 24 h regimen",1.45 mg/kg/24 h
same,Static Effect f24AUC/MIC,"S. pneumoniae; SP1329, q 24 h regimen",18.0
same,Static Effect mg/kg/24 h,"S. pneumoniae; SP1329, q 24 h regimen",0.90 mg/kg/24 h
same,1 Log Kill f24AUC/MIC,"S. pneumoniae; SP1396, q 72 h regimen",4.3
same,1 Log Kill mg/kg/24 h,"S. pneumoniae; SP1396, q 72 h regimen",0.61 mg/kg/24 h
same,2 Log Kill f24AUC/MIC,"S. pneumoniae; SP1396, q 72 h regimen",4.8
same,2 Log Kill mg/kg/24 h,"S. pneumoniae; SP1396, q 72 h regimen",0.69 mg/kg/24 h
same,Static Effect f24AUC/MIC,"S. pneumoniae; SP1396, q 72 h regimen",4.0
same,Static Effect mg/kg/72 h,"S. pneumoniae; SP1396, q 72 h regimen",0.52 mg/kg/72 h
same,1 log kill mg/kg,"S. pneumoniae; SP10813, q 12 h",2.8 mg/kg
same,2 log kill mg/kg,"S. pneumoniae; SP10813, q 12 h",3.5 mg/kg
same,1 log kill mg/kg,"S. pneumoniae; SP10813, q 24 h",1.54 mg/kg
same,2 log kill mg/kg,"S. pneumoniae; SP10813, q 24 h",1.75 mg/kg
same,1 Log Kill f24AUC/MIC,"S. pneumoniae; SP10813, q 24 h regimen",8.7
same,1 Log Kill mg/kg/24 h,"S. pneumoniae; SP10813, q 24 h regimen",1.54 mg/kg/24 h
same,2 Log Kill f24AUC/MIC,"S. pneumoniae; SP10813, q 24 h regimen",9.9
same,2 Log Kill mg/kg/24 h,"S. pneumoniae; SP10813, q 24 h regimen",1.75 mg/kg/24 h
same,Static Effect f24AUC/MIC,"S. pneumoniae; SP10813, q 24 h regimen",7.5
same,Static Effect mg/kg/24 h,"S. pneumoniae; SP10813, q 24 h regimen",1.34 mg/kg/24 h
same,1 log kill mg/kg,"S. pneumoniae; SP10813, q 36 h",1.53 mg/kg
same,2 log kill mg/kg,"S. pneumoniae; SP10813, q 36 h",1.81 mg/kg
same,1 log kill mg/kg,"S. pneumoniae; SP10813, q 72 h",0.77 mg/kg
same,2 log kill mg/kg,"S. pneumoniae; SP10813, q 72 h",0.82 mg/kg
same,1 Log Kill f24AUC/MIC,"S. pneumoniae; SP10813, q 72 h regimen",1.6
same,1 Log Kill mg/kg/24 h,"S. pneumoniae; SP10813, q 72 h regimen",0.77 mg/kg/24 h
same,2 Log Kill f24AUC/MIC,"S. pneumoniae; SP10813, q 72 h regimen",1.6
same,2 Log Kill mg/kg/24 h,"S. pneumoniae; SP10813, q 72 h regimen",0.82 mg/kg/24 h
same,Static Effect f24AUC/MIC,"S. pneumoniae; SP10813, q 72 h regimen",1.4
same,Static Effect mg/kg/72 h,"S. pneumoniae; SP10813, q 72 h regimen",0.71 mg/kg/72 h
same,drop in cfu,"S. pneumoniae; all strains, 6 day study",> 4 log10
same,free drug 24 h AUC/MIC associated with a static effect,S. pneumoniae; every 24 h dosing,17.6±6.9
same,free drug AUC/MIC required for efficacy,"S. pneumoniae; over the 6 days of therapy, net static effect, 1 or 2 log kill",~100
same,extent of killing,"S. pneumoniae; single doses, highest doses studied",> 2 log
same,clearance,clinical; CL,0.777 mL/min
same,Vd,clinical; Vss,18.1 L
same,fraction unbound,in vitro,0.004
